Experimental findings from patent US9738682B2, “Compounds with a combined antioxidant activity against free radicals together with an anti-inflammatory action, and pharmaceutical and cosmetic compositions containing them for the treatment of skin and hair” (GIULIANI S.P.A., priority 2014, dated 2017) are described below.

The test system of test [1] is human keratinocytes cell line NCTC2544. In words: MTT assay with induced oxidative stress (1 mM H2O2). The format is cell-based. Particulars: NCTC-2544, 0.5 μM compound, 16 h pre-treatment, then 1 mM H2O2 for 90 minutes, read-out: % viability (cell viability compared to not stressed control cells). An excerpt: In the intracellular environment, said formazan forms insoluble crystals to which the membranes are substantially impermeable: the molecule is therefore allowed to entry the cell, but not to exit it, if the molecule is correctly metabolized, i.e. if the electron transport chains are still metabolically active (that is equipped with an active reducing power).
This assay measures the viability of cells subjected to oxidative stress, and is therefore interpreted not only as an indicator of the antioxidant activity but also as an indicator of protection from oxidative stress and enhancement of cellular antioxidant defenses, in general terms being the test non-specific.
With the transformation of MTT, a change in color of the molecule from yellow to dark blue-violet is seen; therefore, to estimate the number of active mitochondria and, therefore, the number of viable cells in the sample, a colorimetric assay with a spectrophotometer read-out is used.
The protocol described below is used as a screening tool for the activity of the compounds of the invention object of the study, after induction of oxidative stress in the human keratinocytes cell line NCTC2544 through application of 1 mM hydrogen peroxide, according to a specific bibliographic reference (Rajapakse et al., 2004). The assay was conducted according to the method described by Coda and collaborators, with some modifications
The NCTC 2544 human keratinocytes were seeded in a 96-well plate at a density of 5*10^4 cells/well and incubated at 37° C. and 5% CO2, until reaching approximately 80% confluence.
The cells were then pretreated for 16 hours with the compounds of the invention to be tested in different concentrations, and with α-tocopherol, tested at the […] and 1 mM concentrations, as a reference. Cells treated with 1 mM H2O2 were used as negative control; however, cells maintained in culture in complete medium, served as the positive control.
At the end of the 16 hours of pre-treatment, the cells were washed with 1×PBS and incubated for 90 minutes with a 1 mM H2O2 solution (Sigma-Aldrich, St. Louis, Mo., USA) in serum-free medium at 37° C. and 5% CO2, in the dark.
Once the oxidative stress induction phase was completed, the evaluation of cell viability of the various samples was carried out, according to the method previously described (MTT assay).
The data were expressed as the percentage of cell viability compared to not stressed control cells (ctr), according to the following formula: % cell viability/ctr=(Abs sample/Abs ctr)*100
All analyzes were performed at least twice in duplicate.

For test [2], the system named is TNF-α gene expression in NCTC 2544 human keratinocytes. The experiment in a line: In vitro inflammation test: LPS-induced TNF-α gene expression by qRT-PCR. The format is cell-based. To be noted: 5 μM compound, LPS 5 μg/ml, 24 h, NCTC 2544 keratinocytes. The procedure: A immortalized line of NCTC 2544 human keratinocytes (Perry V. P. et al., 1957), kept in culture in sterile flasks ([…]), incubated at 37° C. in a humid atmosphere with 5% CO2 in MEM (Minimum Essential Medium) culture medium added with 10% fetal bovine serum (FBS), 2 mM glutamine, 1% non-essential amino acids, in the presence of 1% of penicillin and streptomycin, is used.
When the cells (NCTC 2544 human keratinocytes) reached approximately 80% confluence, they were detached with trypsin/EDTA and seeded at a density of 1×10^6 cells/ml in 12-well plates, and then incubated at 37° C., 5% CO2 (24 h). […]
The activity of the compounds under study on TNF-α gene expression was assessed by relative quantitative RT-PCR (quantitative reverse transcription-polymerase chain reaction-qRT-PCR). […]
With the use of a spectrophotometer (Jenway UV/VIS MOD: 6715, BS-6715B0), the μg/mL concentrations of the total RNA extracted were calculated, at a wavelength of 260 nm.
Finally, the RNA integrity (2 μg/mL) was evaluated by means of an electrophoretic run on 1% agarose gel.
The RNA extracted and quantified was diluted at a concentration of 2 μg/mL and reverse-transcribed into cDNA. […]

Structures can show the parent of a compound that is named as a salt.

In the case of `C/C=C/C=C/C=C/C(=O)O` [octatrienoic acid arginine salt, Octatrienoic acid arginine salt], in test [1], the viability at 0.5 µM worked out at 91.5%. The same measure, in the same setting: then `CC=CC=CC=CC(=O)O` [octatrienoic acid, 2,4,6-octatrienoic acid], with about 75%; and `C/C=C/C=C/C=C/C(=O)Oc1cc(/C=C/c2ccc(O)cc2)cc(OC(=O)/C=C/C=C/C=C/C)c1` [resveratrol di-octatrienoate, Resveratrol 3,5-di-octatrienoate], with 120%. Turning to `Oc1ccc(C=Cc2cc(O)cc(O)c2)cc1` [resveratrol], the “anti-inflammatory activity (TNF-α assay, FIG. 2)” value in test [2] is listed as “proves not to have”. Also, in test [1], the viability at 0.5 µM is about 75%.
